Publication PMC10587126, “Molecular hybridization strategy for tuning bioactive peptide function” (Communications Biology, 2023)
No end group written: not given here.

What was measured:
human erythrocytes = assay: Hemolytic activity; type: cell-based; settings: 0.1–100 μmol L^−1 in PBS, room temperature, 1 h, absorbance 405 nm
Description: Assays against freshly collected human erythrocytes were performed following protocols described by Pedron et al.[54]. Briefly, peptide aliquots at concentrations ranging from 0.1 to 100 μmol L^−1 were incubated with a suspension of erythrocytes at room temperature for 1 h. The samples were then centrifuged, and the absorbance of the supernatant was measured at 405 nm. […] The surfactant SDS and PBS buffer were used as positive[81],[82] and negative controls, respectively. Sodium heparin was used as an anticoagulant when collecting human blood. Three biological repeats were performed. All experiments were performed in accordance with the protocol CEUA/IB #I-1345/15 approved by the Instituto Butantan.

[1] = Resistance to proteolytic degradation in fetal bovine serum; type: in vitro ADME; settings: 25% fetal bovine serum in water, 37 °C
Description: Stability assays were performed following the protocol described by Torres et al.[67]. Briefly, a peptide solution was added to GIBCO fetal bovine serum diluted to 25% in water and kept at 37 °C. The degradation kinetics were monitored by liquid chromatography and the percentage of peptide remaining in each case was calculated by integrating the peptide peak area. These experiments were performed as three independent replicates, and aliquots were taken at 0, 0.5, 1, 2, 4, and 6 h.

A. baumannii ATCC 19606 = assay: Skin abscess infection mouse model, CFU quantification; type: in vivo, Acinetobacter baumannii (in female CD-1 mice); settings: female CD-1 mice, 1 × 10^7 CFU, peptide onto the abscess at MIC
Description: (§1) The anti-infective activity of the peptides VmCT1, temporin A, VT, and TV against A. baumannii ATCC 19606 was evaluated as described by Torres et al.[7],[83] Bacteria were grown in tryptic soy broth medium to an optical density of 0.5 at 600 nm. Cells were washed twice with sterile phosphate-buffered saline (pH 7.4, 13,000 rpm for 1 min) and resuspended to a final concentration of 1 × 10^7 CFU/20 μL. To generate the skin infection, female CD-1 mice (6-weeks-old) were first anesthetized with isoflurane and their backs were shaved. Using a needle, a superficial linear abrasion was made on the shaved area of the mice to injure just the stratum corneum and the upper layer of the epidermis. An aliquot of 20 μL containing 1 × 10^7 CFU of A. baumannii was then inoculated over the wound area with a pipette tip. The next day, the infected area was treated with the peptides (i.e., VmCT1, temporin A, VT, and TV), which were administered onto the abscess at their MIC. The animals were euthanized, and the scarified skin area removed 2- and 4-days post-infection. The excised area was homogenized using a bead beater for 20 min (25 Hz) and serially diluted for CFU quantification. Eight mice were used per group (n = 8). All experiments were performed in accordance with protocol 806763 approved by the IACUC at the University of Pennsylvania.

[2] = Mouse body weight in the skin abscess infection model; type: in vivo
Description: as §1

[3] = LC peak area, time 0 = 100, 0.5 h, replicate 1
[4] = LC peak area, time 0 = 100, 0.5 h, replicate 2
[5] = LC peak area, time 0 = 100, 0.5 h, replicate 3
[6] = LC peak area, time 0 = 100, 1 h, replicate 1
[7] = LC peak area, time 0 = 100, 1 h, replicate 2
[8] = LC peak area, time 0 = 100, 1 h, replicate 3
[9] = LC peak area, time 0 = 100, 2 h, replicate 1
[10] = LC peak area, time 0 = 100, 2 h, replicate 2
[11] = LC peak area, time 0 = 100, 2 h, replicate 3
[12] = LC peak area, time 0 = 100, 4 h, replicate 1
[13] = LC peak area, time 0 = 100, 4 h, replicate 2
[14] = LC peak area, time 0 = 100, 4 h, replicate 3
[15] = LC peak area, time 0 = 100, 6 h, replicate 1
[16] = LC peak area, time 0 = 100, 6 h, replicate 2
[17] = LC peak area, time 0 = 100, 6 h, replicate 3
[18] = day 0 = 100, Day 1, replicate 1
[19] = day 0 = 100, Day 1, replicate 2
[20] = day 0 = 100, Day 1, replicate 3
[21] = day 0 = 100, Day 2, replicate 1
[22] = day 0 = 100, Day 2, replicate 2
[23] = day 0 = 100, Day 2, replicate 3
[24] = day 0 = 100, Day 3, replicate 1
[25] = day 0 = 100, Day 3, replicate 2
[26] = day 0 = 100, Day 3, replicate 3
[27] = day 0 = 100, Day 4, replicate 1
[28] = day 0 = 100, Day 4, replicate 2
[29] = day 0 = 100, Day 4, replicate 3

Substance: GLLKRIKTLL-NH2 [Anoplin, reference compound]
- Hemolytic activity (concentration of peptide needed to kill 10% of red blood cells) (human erythrocytes): 50 µmol/L
- Peptide remaining [1, 3]: 22.7
- Peptide remaining [1, 4]: 28.8
- Peptide remaining [1, 5]: 20.2
- Peptide remaining [1, 6]: 20.4
- Peptide remaining [1, 7]: 17.5
- Peptide remaining [1, 8]: 19.1
- Peptide remaining [1, 9]: 14.2
- Peptide remaining [1, 10]: 14.0
- Peptide remaining [1, 11]: 0.0
- Peptide remaining [1, 12]: 0.0
- Peptide remaining [1, 13]: 0.0
- Peptide remaining [1, 14]: 0.0
- Peptide remaining [1, 15]: 0.0
- Peptide remaining [1, 16]: 0.0
- Peptide remaining [1, 17]: 0.0
- remaining at 0.5 h ([1]; fetal bovine serum, 25% in water, LC peak area vs time 0, 30 min, three replicates, read-out: Peptide remaining after 30 min): < 50%

Substance: SLGALINVLKSGG-NH2 [DV]
- Hemolytic activity (concentration of peptide needed to kill 10% of red blood cells) (human erythrocytes): 0.1 µmol/L
- Peptide remaining [1, 3]: 13.4
- Peptide remaining [1, 4]: 10.6
- Peptide remaining [1, 5]: 0.0
- Peptide remaining [1, 6]: 0.0
- Peptide remaining [1, 7]: 0.0
- Peptide remaining [1, 8]: 0.0
- Peptide remaining [1, 9]: 0.0
- Peptide remaining [1, 10]: 0.0
- Peptide remaining [1, 11]: 0.0
- Peptide remaining [1, 12]: 0.0
- Peptide remaining [1, 13]: 0.0
- Peptide remaining [1, 14]: 0.0
- Peptide remaining [1, 15]: 0.0
- Peptide remaining [1, 16]: 0.0
- Peptide remaining [1, 17]: 0.0

Substance: polymyxin B
- A. baumannii load in the infected skin area (CFU quantification) (A. baumannii ATCC 19606; Day 2, mouse 1 of 8): 2000
- A. baumannii load in the infected skin area (CFU quantification) (A. baumannii ATCC 19606; Day 2, mouse 2 of 8): 4000
- A. baumannii load in the infected skin area (CFU quantification) (A. baumannii ATCC 19606; Day 2, mouse 3 of 8): 8000
- A. baumannii load in the infected skin area (CFU quantification) (A. baumannii ATCC 19606; Day 2, mouse 4 of 8): 8000
- A. baumannii load in the infected skin area (CFU quantification) (A. baumannii ATCC 19606; Day 2, mouse 5 of 8): 8000
- A. baumannii load in the infected skin area (CFU quantification) (A. baumannii ATCC 19606; Day 2, mouse 6 of 8): 4000
- A. baumannii load in the infected skin area (CFU quantification) (A. baumannii ATCC 19606; Day 2, mouse 7 of 8): 4000
- A. baumannii load in the infected skin area (CFU quantification) (A. baumannii ATCC 19606; Day 2, mouse 8 of 8): 2000
- A. baumannii load in the infected skin area (CFU quantification) (A. baumannii ATCC 19606; Day 4, mouse 1 of 8): 2000
- A. baumannii load in the infected skin area (CFU quantification) (A. baumannii ATCC 19606; Day 4, mouse 2 of 8): 2000
- A. baumannii load in the infected skin area (CFU quantification) (A. baumannii ATCC 19606; Day 4, mouse 3 of 8): 2000
- A. baumannii load in the infected skin area (CFU quantification) (A. baumannii ATCC 19606; Day 4, mouse 4 of 8): 2000
- A. baumannii load in the infected skin area (CFU quantification) (A. baumannii ATCC 19606; Day 4, mouse 5 of 8): 4000
- A. baumannii load in the infected skin area (CFU quantification) (A. baumannii ATCC 19606; Day 4, mouse 6 of 8): 8000
- A. baumannii load in the infected skin area (CFU quantification) (A. baumannii ATCC 19606; Day 4, mouse 7 of 8): 4000
- A. baumannii load in the infected skin area (CFU quantification) (A. baumannii ATCC 19606; Day 4, mouse 8 of 8): 2000
- Mouse body weight, normalized to the weight at the beginning of the experiment [2, 18]: 90
- Mouse body weight, normalized to the weight at the beginning of the experiment [2, 19]: 95
- Mouse body weight, normalized to the weight at the beginning of the experiment [2, 20]: 100
- Mouse body weight, normalized to the weight at the beginning of the experiment [2, 21]: 90
- Mouse body weight, normalized to the weight at the beginning of the experiment [2, 22]: 100
- Mouse body weight, normalized to the weight at the beginning of the experiment [2, 23]: 100
- Mouse body weight, normalized to the weight at the beginning of the experiment [2, 24]: 90
- Mouse body weight, normalized to the weight at the beginning of the experiment [2, 25]: 100
- Mouse body weight, normalized to the weight at the beginning of the experiment [2, 26]: 105
- Mouse body weight, normalized to the weight at the beginning of the experiment [2, 27]: 95
- Mouse body weight, normalized to the weight at the beginning of the experiment [2, 28]: 100
- Mouse body weight, normalized to the weight at the beginning of the experiment [2, 29]: 110

Substance: FLGSLWRKAGTVF-NH2 [VD]
- Hemolytic activity (concentration of peptide needed to kill 10% of red blood cells) (human erythrocytes): no hemolytic activity was detected
- Peptide remaining [1, 3]: 33.7
- Peptide remaining [1, 4]: 43.8
- Peptide remaining [1, 5]: 94.3
- Peptide remaining [1, 6]: 66.3
- Peptide remaining [1, 7]: 77.3
- Peptide remaining [1, 8]: 49.4
- Peptide remaining [1, 9]: 38.2
- Peptide remaining [1, 10]: 88.5
- Peptide remaining [1, 11]: 63.8
- Peptide remaining [1, 12]: 66.4
- Peptide remaining [1, 13]: 45.3
- Peptide remaining [1, 14]: 44.7
- Peptide remaining [1, 15]: 56.9
- Peptide remaining [1, 16]: 59.8
- Peptide remaining [1, 17]: 0.0

Substance: GLGALLNVIKSGL-NH2 [AV]
- Hemolytic activity (concentration of peptide needed to kill 10% of red blood cells) (human erythrocytes): 100 µmol/L
- Peptide remaining [1, 3]: 31.1
- Peptide remaining [1, 4]: 34.0
- Peptide remaining [1, 5]: 0.0
- Peptide remaining [1, 6]: 27.7
- Peptide remaining [1, 7]: 32.8
- Peptide remaining [1, 8]: 0.0
- Peptide remaining [1, 9]: 39.7
- Peptide remaining [1, 10]: 49.0
- Peptide remaining [1, 11]: 0.0
- Peptide remaining [1, 12]: 26.2
- Peptide remaining [1, 13]: 41.8
- Peptide remaining [1, 14]: 0.0
- Peptide remaining [1, 15]: 0.0
- Peptide remaining [1, 16]: 0.0
- Peptide remaining [1, 17]: 0.0

Substance: FLPLLWRVASGVF-NH2 [VT]
- Hemolytic activity (concentration of peptide needed to kill 10% of red blood cells) (human erythrocytes): 0.2 µmol/L
- Mouse body weight, normalized to the weight at the beginning of the experiment [2, 18]: 95
- Mouse body weight, normalized to the weight at the beginning of the experiment [2, 19]: 100
- Mouse body weight, normalized to the weight at the beginning of the experiment [2, 20]: 100
- Mouse body weight, normalized to the weight at the beginning of the experiment [2, 21]: 90
- Mouse body weight, normalized to the weight at the beginning of the experiment [2, 22]: 105
- Mouse body weight, normalized to the weight at the beginning of the experiment [2, 23]: 100
- Mouse body weight, normalized to the weight at the beginning of the experiment [2, 24]: 90
- Mouse body weight, normalized to the weight at the beginning of the experiment [2, 25]: 100
- Mouse body weight, normalized to the weight at the beginning of the experiment [2, 26]: 95
- Mouse body weight, normalized to the weight at the beginning of the experiment [2, 27]: 95
- Mouse body weight, normalized to the weight at the beginning of the experiment [2, 28]: 100
- Mouse body weight, normalized to the weight at the beginning of the experiment [2, 29]: 95
- Peptide remaining after 30 min ([1]; LC peak area vs time 0, 30 min, three replicates): totally degraded
- Peptide remaining [1, 3]: 0
- Peptide remaining [1, 4]: 0
- Peptide remaining [1, 5]: 0
- Peptide remaining [1, 7]: 0
- Peptide remaining [1, 8]: 0
- Peptide remaining [1, 9]: 0
- Peptide remaining [1, 10]: 0
- Peptide remaining [1, 11]: 0
- Peptide remaining [1, 12]: 0
- Peptide remaining [1, 13]: 0
- Peptide remaining [1, 14]: 0
- Peptide remaining [1, 15]: 0
- Peptide remaining [1, 16]: 0
- Peptide remaining [1, 17]: 0
- remaining at 1 h ([1]; fetal bovine serum, 25% in water, LC peak area, time 0 = 100, 1 h, replicate 1, read-out: Peptide remaining): 0%
